Tests used:
cocklebur = experiment: Test B pre-/postemergence herbicide test; format: in vivo, Xanthium strumarium
Method in brief: (§1)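 Evaluation is visual, comparing treated with control plants on a scale where 0 means no effect and 100 means full control. Treatments were preemergence, or postemergence on seedlings 2–18 cm tall, and held 13–15 days in the greenhouse.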

velvetleaf = experiment: Test B pre-/postemergence herbicide test; format: in vivo, Abutilon theophrasti
Method in brief: (§2)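 Response was scored visually 13 to 15 days after treatment against untreated greenhouse controls, 0 meaning no effect and 100 complete control. Formulations (solvent mixture plus surfactant) went onto soil after planting, onto foliage of 1- to 4-leaf plants, and onto 2-leaf plants in a flooded paddy set including rice and barnyardgrass.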

giant foxtail = experiment: Test B pre-/postemergence herbicide test; format: in vivo, Setaria faberi
Method in brief: as §2

lambsquarters = experiment: Test B pre-/postemergence herbicide test; format: in vivo, Chenopodium album
Method in brief: as §2

[1] = tested on: small flower umbrella sedge; experiment: Test B flooded paddy test; format: in vivo, Cyperus difformis; details: 1000 g ai/ha, visual rating, scale 0 to 100 (0 no effect, 100 complete control), 13 to 15 days
Method in brief: (§3)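 Each value is a visual 0–100 response rating taken against controls 13 to 15 days after treatment in the greenhouse. Plants received formulated chemical postemergence at the 1- to 4-leaf stage or, in flooded paddy, at the 2-leaf stage.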

wheat = experiment: Test B postemergence herbicide test; format: in vivo, Triticum aestivum; design: key to Wheat plant response rating: 0 = no effect, 100 = complete control; details: scale 0 (no effect) to 100 (complete control); for Plant response rating, Wheat: Postemergence, 500 g ai/ha, visual rating after 13 to 15 days; for Wheat plant response rating: postemergence, 125 g ai/ha, visual rating
Method in brief: (§4)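 Read-out: visual comparison with controls, scored 0 to 100, where 100 means complete control and 0 no effect. Formulated chemicals were applied postemergence to plants 2–18 cm tall (1- to 4-leaf), or to flooded-paddy plants at the 2-leaf stage, then held 13 to 15 days under glass.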

blackgrass = experiment: Test B postemergence herbicide test; format: in vivo, Alopecurus myosuroides; details: scale 0 (no effect) to 100 (complete control); for Plant response rating, Blackgrass: Postemergence, 500 g ai/ha, visual rating after 13 to 15 days; for Blackgrass plant response rating: postemergence, 125 g ai/ha, visual rating
Method in brief: as §3

large crabgrass = experiment: Test B pre-/postemergence herbicide test; format: in vivo, Digitaria sanguinalis
Method in brief: as §2

rice = experiment: Test B flooded paddy test; format: in vivo, Oryza sativa; details: 1000 g ai/ha, visual rating, scale 0 to 100 (0 no effect, 100 complete control), 13 to 15 days
Method in brief: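 Postemergence plants were sprayed with formulated test chemicals at 2 to 18 cm height (1- to 4-leaf stage); paddy species were grown to the 2-leaf stage. After 13 to 15 days in a greenhouse, injury was rated visually against untreated controls on a 0–100 scale (0 = no effect, 100 = complete control).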

Surinam grass = experiment: Test B pre-/postemergence herbicide test; format: in vivo, Urochloa decumbens
Method in brief: as §2

pigweed = experiment: Test B pre-/postemergence herbicide test; format: in vivo, Amaranthus retroflexus
Method in brief: as §2

barnyardgrass [2] = experiment: Test B flooded paddy test; format: in vivo, Echinochloa crus-galli; details: 1000 g ai/ha, visual rating, scale 0 to 100 (0 no effect, 100 complete control), 13 to 15 days
Method in brief: as §3

barnyardgrass [3] = experiment: Test B pre-/postemergence herbicide test; format: in vivo, Echinochloa crus-galli
Method in brief: as §1

wild oat = experiment: Test B postemergence herbicide test; format: in vivo, Avena fatua; details: scale 0 (no effect) to 100 (complete control); for Plant response rating, Oat, Wild: Postemergence, 500 g ai/ha, visual rating after 13 to 15 days; for Oat, Wild plant response rating: postemergence, 125 g ai/ha, visual rating
Method in brief: as §4

morningglory = experiment: Test B pre-/postemergence herbicide test; format: in vivo, Ipomoea coccinea
Method in brief: as §1

[4] = Postemergence, 500 g ai/ha, visual rating after 13 to 15 days, scale 0 (no effect) to 100 (complete control)
[5] = Preemergence, 500 g ai/ha, scale 0 to 100
[6] = postemergence, 125 g ai/ha, visual rating, scale 0 (no effect) to 100 (complete control)
[7] = preemergence, 125 g ai/ha, 0 to 100 scale, 0 is no effect, 100 is complete control

## C=CCn1nc(C(C)(C)C)cc1C(=O)Nc1cccc(C(=O)NCC)c1 [Compound 56]
cocklebur; [4]
  Plant response rating, Cocklebur: 80
cocklebur; [5]
  Cocklebur plant response rating: 20
cocklebur; [6]
  Cocklebur plant response rating: 80
cocklebur; [7]
  Plant response rating, Cocklebur: 0
velvetleaf; [4]
  Plant response rating, Velvetleaf: 50
velvetleaf; [5]
  Velvetleaf plant response rating: 100
velvetleaf; [6]
  Velvetleaf plant response rating: 40
velvetleaf; [7]
  Plant response rating, Velvetleaf: 0
Giant foxtail; [4]
  Plant response rating, Foxtail, Giant: 20
Giant foxtail; [5]
  Foxtail, Giant plant response rating: 100
Giant foxtail; [6]
  Foxtail, Giant plant response rating: 20
Giant foxtail; [7]
  Plant response rating, Foxtail, Giant: 60
lambsquarters; [4]
  Plant response rating, Lambsquarters: 90
lambsquarters; [5]
  Lambsquarters plant response rating: 100
lambsquarters; [6]
  Lambsquarters plant response rating: 80
lambsquarters; [7]
  Plant response rating, Lambsquarters: 100
[1]
  Sedge, Umbrella plant response rating: 80
wheat
  Plant response rating, Wheat: 20
  Wheat plant response rating: 10
blackgrass
  Plant response rating, Blackgrass: 10
  Blackgrass plant response rating: 0
Large crabgrass; [4]
  Plant response rating, Crabgrass, Large: 20
Large crabgrass; [5]
  Crabgrass, Large plant response rating: 100
Large crabgrass; [6]
  Crabgrass, Large plant response rating: 10
Large crabgrass; [7]
  Plant response rating, Crabgrass, Large: 70
rice
  Rice plant response rating: 70
Surinam grass; [4]
  Plant response rating, Surinam Grass: 30
Surinam grass; [5]
  Surinam Grass plant response rating: 60
Surinam grass; [6]
  Surinam Grass plant response rating: 20
Surinam grass; [7]
  Plant response rating, Surinam Grass: 30
pigweed; [4]
  Plant response rating, Pigweed: 90
pigweed; [5]
  Pigweed plant response rating: 100
pigweed; [6]
  Pigweed plant response rating: 60
pigweed; [7]
  Plant response rating, Pigweed: 30
Barnyardgrass [2]
  Barnyardgrass plant response rating: 80
Barnyardgrass [3]; [4]
  Plant response rating, Barnyardgrass: 20
Barnyardgrass [3]; [5]
  Barnyardgrass plant response rating: 80
Barnyardgrass [3]; [6]
  Barnyardgrass plant response rating: 20
Barnyardgrass [3]; [7]
  Plant response rating, Barnyardgrass: 50
Wild oat
  Plant response rating, Oat, Wild: 20
  Oat, Wild plant response rating: 20
morningglory; [4]
  Plant response rating, Morningglory: 20
morningglory; [5]
  Morningglory plant response rating: 20
morningglory; [6]
  Morningglory plant response rating: 0
morningglory; [7]
  Plant response rating, Morningglory: 20

## CCn1nc(C(C)(C)C)cc1C(=O)Nc1cccc(C(=O)NCC(C)C)c1 [Compound 61]
cocklebur; [4]
  Plant response rating, Cocklebur: 100
cocklebur; [5]
  Cocklebur plant response rating: 0
cocklebur; [6]
  Cocklebur plant response rating: 60
cocklebur; [7]
  Plant response rating, Cocklebur: 0
velvetleaf; [4]
  Plant response rating, Velvetleaf: 70
velvetleaf; [6]
  Velvetleaf plant response rating: 30
velvetleaf; [7]
  Plant response rating, Velvetleaf: 70
Giant foxtail; [4]
  Plant response rating, Foxtail, Giant: 30
Giant foxtail; [5]
  Foxtail, Giant plant response rating: 80
Giant foxtail; [6]
  Foxtail, Giant plant response rating: 20
Giant foxtail; [7]
  Plant response rating, Foxtail, Giant: 20
lambsquarters; [4]
  Plant response rating, Lambsquarters: 100
lambsquarters; [6]
  Lambsquarters plant response rating: 90
lambsquarters; [7]
  Plant response rating, Lambsquarters: 100
[1]
  Sedge, Umbrella plant response rating: 60
wheat
  Plant response rating, Wheat: 10
  Wheat plant response rating: 10
blackgrass
  Plant response rating, Blackgrass: 0
  Blackgrass plant response rating: 0
Large crabgrass; [4]
  Plant response rating, Crabgrass, Large: 30
Large crabgrass; [5]
  Crabgrass, Large plant response rating: 100
Large crabgrass; [6]
  Crabgrass, Large plant response rating: 20
Large crabgrass; [7]
  Plant response rating, Crabgrass, Large: 50
rice
  Rice plant response rating: 0
Surinam grass; [4]
  Plant response rating, Surinam Grass: 30
Surinam grass; [6]
  Surinam Grass plant response rating: 20
Surinam grass; [7]
  Plant response rating, Surinam Grass: 10
pigweed; [4]
  Plant response rating, Pigweed: 60
pigweed; [6]
  Pigweed plant response rating: 20
pigweed; [7]
  Plant response rating, Pigweed: 80
Barnyardgrass [2]
  Barnyardgrass plant response rating: 30
Barnyardgrass [3]; [4]
  Plant response rating, Barnyardgrass: 30
Barnyardgrass [3]; [5]
  Barnyardgrass plant response rating: 60
Barnyardgrass [3]; [6]
  Barnyardgrass plant response rating: 20
Barnyardgrass [3]; [7]
  Plant response rating, Barnyardgrass: 20
Wild oat
  Plant response rating, Oat, Wild: 20
  Oat, Wild plant response rating: 20
morningglory; [4]
  Plant response rating, Morningglory: 50
morningglory; [6]
  Morningglory plant response rating: 20

## CCn1nc(C(C)(C)C)cc1C(=O)Nc1cccc(C(=O)NCC2CC2)c1 [Compound 62]
cocklebur; [4]
  Plant response rating, Cocklebur: 100
cocklebur; [5]
  Cocklebur plant response rating: 10
cocklebur; [6]
  Cocklebur plant response rating: 70
cocklebur; [7]
  Plant response rating, Cocklebur: 0
velvetleaf; [4]
  Plant response rating, Velvetleaf: 70
velvetleaf; [6]
  Velvetleaf plant response rating: 60
velvetleaf; [7]
  Plant response rating, Velvetleaf: 80
Giant foxtail; [4]
  Plant response rating, Foxtail, Giant: 30
Giant foxtail; [5]
  Foxtail, Giant plant response rating: 90
Giant foxtail; [6]
  Foxtail, Giant plant response rating: 10
Giant foxtail; [7]
  Plant response rating, Foxtail, Giant: 70
lambsquarters; [4]
  Plant response rating, Lambsquarters: 90
lambsquarters; [6]
  Lambsquarters plant response rating: 80
lambsquarters; [7]
  Plant response rating, Lambsquarters: 100
[1]
  Sedge, Umbrella plant response rating: 80
wheat
  Plant response rating, Wheat: 10
  Wheat plant response rating: 0
blackgrass
  Plant response rating, Blackgrass: 70
  Blackgrass plant response rating: 10
Large crabgrass; [4]
  Plant response rating, Crabgrass, Large: 20
Large crabgrass; [5]
  Crabgrass, Large plant response rating: 100
Large crabgrass; [6]
  Crabgrass, Large plant response rating: 10
Large crabgrass; [7]
  Plant response rating, Crabgrass, Large: 80
rice
  Rice plant response rating: 30
Surinam grass; [4]
  Plant response rating, Surinam Grass: 70
Surinam grass; [6]
  Surinam Grass plant response rating: 50
Surinam grass; [7]
  Plant response rating, Surinam Grass: 10
pigweed; [4]
  Plant response rating, Pigweed: 90
pigweed; [6]
  Pigweed plant response rating: 80
pigweed; [7]
  Plant response rating, Pigweed: 100
Barnyardgrass [2]
  Barnyardgrass plant response rating: 70
Barnyardgrass [3]; [4]
  Plant response rating, Barnyardgrass: 50
Barnyardgrass [3]; [5]
  Barnyardgrass plant response rating: 80
Barnyardgrass [3]; [6]
  Barnyardgrass plant response rating: 20
Barnyardgrass [3]; [7]
  Plant response rating, Barnyardgrass: 20
Wild oat
  Plant response rating, Oat, Wild: 30
  Oat, Wild plant response rating: 10
morningglory; [4]
  Plant response rating, Morningglory: 60
morningglory; [6]
  Morningglory plant response rating: 20
morningglory; [7]
  Plant response rating, Morningglory: 10

## CCN1CCc2c(NC(=O)c3cc(C(C)(C)C)nn3CC)cccc2C1=O [Compound 63]
cocklebur; [4]
  Plant response rating, Cocklebur: 70
cocklebur; [5]
  Cocklebur plant response rating: 10
cocklebur; [6]
  Cocklebur plant response rating: 60
cocklebur; [7]
  Plant response rating, Cocklebur: 0
velvetleaf; [4]
  Plant response rating, Velvetleaf: 50
velvetleaf; [6]
  Velvetleaf plant response rating: 40
velvetleaf; [7]
  Plant response rating, Velvetleaf: 10
Giant foxtail; [4]
  Plant response rating, Foxtail, Giant: 20
Giant foxtail; [5]
  Foxtail, Giant plant response rating: 100
Giant foxtail; [6]
  Foxtail, Giant plant response rating: 10
Giant foxtail; [7]
  Plant response rating, Foxtail, Giant: 60
lambsquarters; [4]
  Plant response rating, Lambsquarters: 80
lambsquarters; [6]
  Lambsquarters plant response rating: 80
lambsquarters; [7]
  Plant response rating, Lambsquarters: 90
[1]
  Sedge, Umbrella plant response rating: 100
wheat
  Plant response rating, Wheat: 10
  Wheat plant response rating: 10
blackgrass
  Plant response rating, Blackgrass: 20
  Blackgrass plant response rating: 10
Large crabgrass; [4]
  Plant response rating, Crabgrass, Large: 20
Large crabgrass; [5]
  Crabgrass, Large plant response rating: 100
Large crabgrass; [6]
  Crabgrass, Large plant response rating: 10
Large crabgrass; [7]
  Plant response rating, Crabgrass, Large: 70
rice
  Rice plant response rating: 60
Surinam grass; [4]
  Plant response rating, Surinam Grass: 20
Surinam grass; [6]
  Surinam Grass plant response rating: 10
Surinam grass; [7]
  Plant response rating, Surinam Grass: 20
pigweed; [4]
  Plant response rating, Pigweed: 70
pigweed; [6]
  Pigweed plant response rating: 40
pigweed; [7]
  Plant response rating, Pigweed: 100
Barnyardgrass [2]
  Barnyardgrass plant response rating: 80
Barnyardgrass [3]; [4]
  Plant response rating, Barnyardgrass: 20
Barnyardgrass [3]; [5]
  Barnyardgrass plant response rating: 100
Barnyardgrass [3]; [6]
  Barnyardgrass plant response rating: 10
Barnyardgrass [3]; [7]
  Plant response rating, Barnyardgrass: 60
Wild oat
  Plant response rating, Oat, Wild: 30
  Oat, Wild plant response rating: 20
morningglory; [4]
  Plant response rating, Morningglory: 20
morningglory; [6]
  Morningglory plant response rating: 20
morningglory; [7]
  Plant response rating, Morningglory: 0

From patent publication US20060069132A1, “Azolecarboxamide herbicides” (priority 2004, published 2006)
